Test results reported in US20100234377A1 (priority 2007, published 2010).

Target: T1, human Prostaglandin D Synthase (GST2) (Homo sapiens, UniProt O60760)
T1 construct: the open reading frame of human Prostaglandin D Synthase was amplified from cDNA; made in house; host or cells: E. coli TOP10F'
Test: Homogeneous biochemical assay of human Prostaglandin D Synthase (GST2) based on its glutathion-S-transferase activity (GSH conjugation to monochlorobimane, fluorescence)
Settings: given beside the compound name in Examples 1 to 167; read-out: Potency Range (GST2 IC50)
Source text: Homogeneous, Biochemical Assay Monitoring the Activity of Human Prostaglandin D Synthase Based on the Glutathion-S-Transferase Activity of the Enzyme
Prostaglandin D2 synthesis by Prostaglandin D synthase (GST2) requires transfer of Glutathion (GSH) to the substrate, Prostaglandin H2. […] Since the Prostaglandin D2 synthesis is absolutely dependent on the GST activity of the enzyme, assays monitoring the GST activity should allow to identify specific inhibitors of Prostaglandin D2 synthetic activity. The assay principle used is based on enzymatic conjugation of GSH to Monochlorobimane (MCB), that becomes fluorescent upon this chemical modification. Therefore, the enzymatic reaction can be monitored by total fluorescence measurement.
In brief, the open reading frame of human Prostaglandin D Synthase was amplified from cDNA using the primer pair:
This construct allows prokaryotic expression of Prostaglandin D Synthase as fusion protein with a N-terminal hexa-histidine tag, referred to as NHis-Prostaglandin D Synthase.
Expression of NHis-Prostaglandin D Synthase was in E. coli TOP10F′ (Invitrogen, Germany, cat. no. C3030-03). […] When the culture had reached a density corresponding to an A600 of 0.6, an equal volume of room temperature LB/ampicillin was added. […] Cells harvested by centrifugation were resuspended in 50 mM tris(hydroxymethyl)aminomethane hydrochloride pH 7.5 (Tris/HCl, Sigma, cat. no. T5941).
Removal of unbound material was with 100 ml lysis buffer. Elution was with 50 ml of 50 mM Tris/HCl pH 7.5, 300 mM imidazol (Sigma, Germany, cat. no. I2399)/HCl pH 7.5). […] Aliquots were shock frozen in liquid nitrogen and stored at −80° C.
All assay components were diluted in reaction buffer, 50 mM MES/KOH (pH 6.1), 0.7 mM GSH (Sigma, G4251), 2 mM MgCl2 (Sigma, M2670), 0.05% Pluronic F127 (Sigma, P2443), and stored on ice prior to use. Compounds were diluted in 90% DMSO yielding final assay concentrations from the picomolar to three digit micromolar range.
Total fluorescent measurement was carried out with excitation and emission wavelength of 390 and 460 nm, respectively (BMG Fluostar Optima).

T1 sequence (O60760 whole entry): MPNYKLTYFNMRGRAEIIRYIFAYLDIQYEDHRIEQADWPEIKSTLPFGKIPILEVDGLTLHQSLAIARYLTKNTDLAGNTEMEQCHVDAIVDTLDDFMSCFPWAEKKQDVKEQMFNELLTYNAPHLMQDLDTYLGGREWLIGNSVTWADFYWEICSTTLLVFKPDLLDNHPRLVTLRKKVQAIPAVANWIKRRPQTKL

Row | Compound | IC50 [nM]
1 | 4-(3-Fluoro-benzoyl)-piperazine-1-carboxylic acid [4-(2-methyl-thiazol-3-yl)-phenyl]-amide [Compound 29] | 11 to 100
2 | CC(C)(C)c1ccc(NC(=S)N2CCN(C(=O)c3ccccc3)CC2)cc1 [Compound 1, 4-Benzoyl-piperazine-1-carbothioic acid (4-tert-butyl-phenyl)-amide] | 1 to 10
3 | CN(C)c1ccc(NC(=S)N2CCN(C(=O)c3ccccc3)CC2)cc1 [Compound 2, 4-Benzoyl-piperazine-1-carbothioic acid (4-dimethylamino-phenyl)-amide] | 1 to 10
4 | O=C(c1ccccc1)N1CCN(C(=S)Nc2ccc([N+](=O)[O-])cc2)CC1 [Compound 3, 4-Benzoyl-piperazine-1-carbothioic acid (4-nitro-phenyl)-amide] | 11 to 100
5 | O=C(c1ccccc1)N1CCN(C(=S)Nc2ccc(F)cc2)CC1 [Compound 4, 4-Benzoyl-piperazine-1-carbothioic acid (4-fluoro-phenyl)-amide] | 101 to 1000
6 | O=C(c1ccccc1)N1CCN(C(=S)Nc2cccc3ccccc23)CC1 [Compound 5, 4-Benzoyl-piperazine-1-carbothioic acid naphthalen-1-ylamide] | 11 to 100
7 | COC(=O)c1ccc(NC(=S)N2CCN(C(=O)c3ccccc3)CC2)cc1 [Compound 6, 4-[(4-Benzoyl-piperazine-1-carbothioyl)-amino]-benzoic acid methyl ester] | 11 to 100
8 | Cc1ccc(NC(=S)N2CCN(C(=O)c3ccccc3)CC2)cc1 [Compound 7, 4-Benzoyl-piperazine-1-carbothioic acid p-tolylamide] | 101 to 1000
9 | CC(C)(C)c1ccc(NC(=S)N2CCN(C(=O)c3ccc(F)cc3)CC2)cc1 [Compound 8, 4-(4-Fluoro-benzoyl)-piperazine-1-carbothioic acid (4-tert-butyl-phenyl)-amide] | 11 to 100
10 | O=C(c1ccc(F)cc1)N1CCN(C(=S)Nc2ccc(Oc3ccccc3)cc2)CC1 [Compound 9, 4-(4-Fluoro-benzoyl)-piperazine-1-carbothioic acid (4-phenoxy-phenyl)-amide] | 101 to 1000
11 | CN(C)c1ccc(NC(=S)N2CCN(C(=O)c3ccc(F)cc3)CC2)cc1 [Compound 10, 4-(4-Fluoro-benzoyl)-piperazine-1-carbothioic acid (4-dimethylamino-phenyl)-amide] | 101 to 1000
12 | COC(=O)c1ccc(NC(=S)N2CCN(C(=O)c3ccc(F)cc3)CC2)cc1 [Compound 11, 4-{[4-(4-Fluoro-benzoyl)-piperazine-1-carbothioyl]-amino}-benzoic acid methyl ester] | 101 to 1000
13 | COc1ccc(NC(=S)N2CCN(C(=O)c3ccc(F)cc3)CC2)cc1 [Compound 12, 4-(4-Fluoro-benzoyl)-piperazine-1-carbothioic acid (4-methoxy-phenyl)-amide] | 101 to 1000
14 | Cc1ccc(NC(=S)N2CCN(C(=O)c3ccc(F)cc3)CC2)cc1 [Compound 13, 4-(4-Fluoro-benzoyl)-piperazine-1-carbothioic acid p-tolylamide] | 101 to 1000
15 | CN(C)c1ccc(NC(=S)N2CCN(C(=O)c3cccnc3)CC2)cc1 [Compound 14, 4-(Pyridine-3-carbonyl)-piperazine-1-carbothioic acid (4-dimethylamino-phenyl)-amide] | 101 to 1000
16 | O=C(c1cccc(F)n1)N1CCN(C(=S)Nc2ccc(Oc3ccccc3)cc2)CC1 [Compound 17, 4-(6-Fluoro-pyridine-2-carbonyl)-piperazine-1-carbothioic acid (4-phenoxy-phenyl)-amide] | 101 to 1000
17 | O=C(c1cccc(F)n1)N1CCN(C(=S)Nc2ccc(OC(F)F)cc2)CC1 [Compound 18, 4-(6-Fluoro-pyridine-2-carbonyl)-piperazine-1-carbothioic acid (4-difluoromethoxy-phenyl)-amide] | 101 to 1000
18 | O=C(c1cccc(F)n1)N1CCN(C(=S)Nc2ccc(OC(F)(F)F)cc2)CC1 [Compound 19, 4-(6-Fluoro-pyridine-2-carbonyl)-piperazine-1-carbothioic acid (4-trifluoromethoxy-phenyl)-amide] | 101 to 1000

Row | Compound | IC50 [nM]
19 | O=C(c1cccc(F)n1)N1CCN(C(=S)Nc2ccc(C(F)(F)F)cc2)CC1 [Compound 20, 4-(6-Fluoro-pyridine-2-carbonyl)-piperazine-1-carbothioic acid (4-trifluoromethyl-phenyl)-amide] | 101 to 1000
20 | O=C(c1cccc(F)c1)N1CCN(C(=S)Nc2ccc(C(F)(F)F)cc2)CC1 [Compound 23, 4-(3-Fluoro-benzoyl)-piperazine-1-carbothioic acid (4-trifluoromethyl-phenyl)-amide] | 11 to 100
21 | O=C(Nc1cc(Cl)nc(Cl)c1)N1CCN(C(=O)c2cccc(F)c2)CC1 [Compound 24, 4-(3-Fluoro-benzoyl)-piperazine-1-carboxylic acid (2,6-dichloro-pyridin-4-yl)-amide] | 101 to 1000
22 | O=C(Nc1cccc(Oc2ccccc2)c1)N1CCN(C(=O)c2cccc(F)c2)CC1 [Compound 25, 4-(3-Fluoro-benzoyl)-piperazine-1-carboxylic acid (3-phenoxy-phenyl)-amide] | 11 to 100
23 | O=C(Nc1ccc(Oc2ccccc2)cc1)N1CCN(C(=O)c2cccc(F)c2)CC1 [Compound 26, 4-(3-Fluoro-benzoyl)-piperazine-1-carboxylic acid (4-phenoxy-phenyl)-amide] | 11 to 100
24 | O=C(Nc1ccc2sccc2c1)N1CCN(C(=O)c2cccc(F)c2)CC1 [Compound 27, 4-(3-Fluoro-benzoyl)-piperazine-1-carboxylic acid benzo[b]thiophen-5-ylamide] | 11 to 100
25 | O=C(Nc1ccc(-c2cccs2)cc1)N1CCN(C(=O)c2cccc(F)c2)CC1 [Compound 28, 4-(3-Fluoro-benzoyl)-piperazine-1-carboxylic acid (4-thiophen-2-yl-phenyl)-amide] | 11 to 100
26 | O=C(Nc1cccc(N2CCOCC2)c1)N1CCN(C(=O)c2cccc(F)c2)CC1 [Compound 31, 4-(3-Fluoro-benzoyl)-piperazine-1-carboxylic acid (3-morpholin-4-yl-phenyl)-amide] | 101 to 1000
27 | O=C(Nc1cccc(Br)c1)N1CCN(C(=O)c2cccc(F)c2)CC1 [Compound 32, 4-(3-Fluoro-benzoyl)-piperazine-1-carboxylic acid (3-bromo-phenyl)-amide] | 11 to 100
28 | CCOC(=O)c1ccc(NC(=O)N2CCN(C(=O)c3cccc(F)c3)CC2)cc1 [Compound 33, 4-{[4-(3-Fluoro-benzoyl)-piperazine-1-carbonyl]-amino}-benzoic acid ethyl ester] | 101 to 1000
29 | COC(=O)c1cccc(NC(=O)N2CCN(C(=O)c3cccc(F)c3)CC2)c1 [Compound 34, 3-{[4-(3-Fluoro-benzoyl)-piperazine-1-carbonyl]-amino}-benzoic acid methyl ester] | 11 to 100
30 | N#Cc1cccc(NC(=O)N2CCN(C(=O)c3cccc(F)c3)CC2)c1 [Compound 35, 4-(3-Fluoro-benzoyl)-piperazine-1-carboxylic acid (3-cyano-phenyl)-amide] | 11 to 100
31 | O=C(Nc1cccc([N+](=O)[O-])c1)N1CCN(C(=O)c2cccc(F)c2)CC1 [Compound 36, 4-(3-Fluoro-benzoyl)-piperazine-1-carboxylic acid (3-nitro-phenyl)-amide] | 101 to 1000
32 | O=C(Nc1ccc([N+](=O)[O-])cc1)N1CCN(C(=O)c2cccc(F)c2)CC1 [Compound 37, 4-(3-Fluoro-benzoyl)-piperazine-1-carboxylic acid (4-nitro-phenyl)-amide] | 101 to 1000
33 | O=C(Nc1ccc(N2CCOCC2)c(Cl)c1)N1CCN(C(=O)c2cccc(F)c2)CC1 [Compound 38, 4-(3-Fluoro-benzoyl)-piperazine-1-carboxylic acid (3-chloro-4-morpholin-4-yl-phenyl)-amide] | 11 to 100
34 | O=C(c1cccc(F)n1)N1CCN(C(=S)Nc2ccc(N3CCOCC3)c(F)c2)CC1 [Compound 40, 4-(6-Fluoro-pyridine-2-carbonyl)-piperazine-1-carbothioic acid (3-fluoro-4-morpholin-4-yl-phenyl)-amide] | 101 to 1000
35 | O=C(Nc1ccc(N2CCOCC2)c(F)c1)N1CCN(C(=O)c2cccc(F)c2)CC1 [Compound 41, 4-(3-Fluoro-benzoyl)-piperazine-1-carboxylic acid (3-fluoro-4-morpholin-4-yl-phenyl)-amide] | 11 to 100
36 | O=C(c1ccccc1)c1ccc(NC(=O)N2CCN(C(=O)c3cccc(F)c3)CC2)cc1 [Compound 42, 4-(3-Fluoro-benzoyl)-piperazine-1-carboxylic acid (4-benzoyl-phenyl)-amide] | 11 to 100
